Laboratory results: patent US12286442B2, “Methods and materials for increasing transcription factor eb polypeptide levels” (University of Pittsburgh—Of the Commonwealth System of …, priority 2019, dated 2025)

System: TFEB
Test: High content screen measuring TFEB nuclear accumulation (TFEB nuclear/cytosol ratio) in BEAS-2B cells stably expressing TFEB-EGFP
Type: cell-based, human
Conditions: 18 hours incubation
Summary of the method: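 Readout: lowest compound concentration giving a 25% rise in nuclear/cytosol TFEB-GFP ratio, from DAPI-masked nuclear and mask-expanded cytosolic signals. Cells (BEAS-2B, TFEB-EGFP stable, ~2300–2500/well) rested 8 hours, then treated 18 hours with compound serial dilutions in 2% FBS medium before PFA fixation and DAPI staining.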

Compound | efficacy (minimal compound concentration needed to increase TFEB nuclear/cytosol ratio by 25%)
FC(F)(F)c1nc2ccc(Nc3nc(-c4ccncc4)nc4ccccc34)cc2o1 [Compound 96] | + (“+” equals >25 μM)
CC(C)(C)c1cc2cc(Nc3nc(-c4ccncc4)cc4ncccc34)ccc2[nH]1 [Compound 243] | +++ (“+++” equals ≤1 μM)
COc1ccc(-n2c(=O)c3ccc(C(=O)NCCc4ccccc4)cc3n(CC(=O)Nc3ccc(C)cc3)c2=O)cc1 [Compound 222] | ++ (“++” equals between ≤25 μM and >1 μM)
CCc1nc2ccc(Nc3nc(-c4ccncc4)nc4ccccc34)cc2o1 [Compound 360] | + (“+” equals >25 μM)
c1cc(Nc2nc(-c3ccncc3)nc3ccccc23)c2[nH]ncc2c1 [Compound 100] | + (“+” equals >25 μM)
FC(F)(F)c1cccc(Nc2nc(-c3ccncc3)nc3ccccc23)c1 [Compound 189] | ++ (“++” equals between ≤25 μM and >1 μM)
c1ccc2c(Nc3ccc4oncc4c3)nc(-c3cncs3)nc2c1 [Compound 394] | + (“+” equals >25 μM)
Cc1cc(Br)cc(Nc2nc(-c3ccncc3)nc3ccccc23)c1 [Compound 55] | + (“+” equals >25 μM)
C1=C(c2nc(Nc3ccc4[nH]ncc4c3)c3ccccc3n2)CCNC1 [Compound 75] | + (“+” equals >25 μM)
Clc1cccc(Nc2nc(-c3ccncc3)nc3ccccc23)c1 [Compound 187] | +++ (“+++” equals ≤1 μM)
O=C(NCCc1ccccc1)c1ccc2c(=O)n(-c3ccccc3)c(=O)[nH]c2c1 [Compound 238] | + (“+” equals >25 μM)
c1ccc2c(Nc3ccc4scnc4c3)nc(-c3ccncc3)nc2c1 [Compound 27] | +++ (“+++” equals ≤1 μM)
Cc1nc2ccc(Nc3nc(-c4ccncc4)nc4ccccc34)cc2o1 [Compound 34] | +++ (“+++” equals ≤1 μM)
Cc1ccc(-c2nc(Nc3ccc(C)c(F)c3)c3ccccc3n2)cc1 [Compound 202] | + (“+” equals >25 μM)
Fc1cc(Nc2nc(N3CCOCC3)nc3ncccc23)cc2cc[nH]c12 [Compound 384] | +++ (“+++” equals ≤1 μM)
CCc1ccc(-n2c(=O)c3ccccc3n(Cc3cccc(F)c3)c2=O)cc1 [Compound 237] | ++ (“++” equals between ≤25 μM and >1 μM)
Fc1ccccc1Nc1nc(-c2ccncc2)nc2ccccc12 [Compound 180] | + (“+” equals >25 μM)
N#Cc1nc2ccc(Nc3nc(-c4ccncc4)nc4ccccc34)cc2s1 [Compound 87] | + (“+” equals >25 μM)
Cc1cccc2c(Nc3ccc4ncsc4c3)nc(-c3ccncc3)nc12 [Compound 371] | +++ (“+++” equals ≤1 μM)
Fc1cc(Nc2nc(-c3ccncc3)cc3ncccc23)cc2cc[nH]c12 [Compound 239] | ++ (“++” equals between ≤25 μM and >1 μM)
CCc1nc2ccc(Nc3nc(-c4ccncc4)nc4ncccc34)cc2o1 [Compound 356] | +++ (“+++” equals ≤1 μM)
O=c1c2ccccc2n(CCN2CCOCC2)c(=O)n1-c1ccccc1 [Compound 229] | + (“+” equals >25 μM)
Nc1c(Cl)cc(Nc2nc(-c3ccncc3)nc3ccccc23)cc1Cl [Compound 162] | + (“+” equals >25 μM)
c1ccc2c(Nc3ccc4ncoc4c3)nc(-c3ccncc3)nc2c1 [Compound 142] | +++ (“+++” equals ≤1 μM)
CC(=O)n1ccc2cc(Nc3nc(-c4ccncc4)nc4ccccc34)ccc21 [Compound 70] | +++ (“+++” equals ≤1 μM)
Cc1ccc(-c2nc(Nc3cccc(F)c3)c3ccccc3n2)cc1 [Compound 159] | + (“+” equals >25 μM)
c1ccc2c(Nc3ccc4c(c3)NCCN4)nc(-c3ccncc3)nc2c1 [Compound 42] | +++ (“+++” equals ≤1 μM)
OCCNc1nc(-c2ccncc2)nc2ccccc12 [Compound 168] | + (“+” equals >25 μM)
CC(C)(C)OC(=O)N1CC=C(c2nc(Nc3ccc4[nH]ccc4c3)c3ccccc3n2)CC1 [Compound 88] | + (“+” equals >25 μM)
Cc1nc2cc(Nc3nc(-c4ccncc4)nc4ccccc34)ccc2s1 [Compound 95] | + (“+” equals >25 μM)

System: BEAS-2B cells
Test: Toxicity: compound concentration needed to induce greater than 50 percent of cell loss
Type: cell-based, human
Conditions: 18 hours incubation
Summary of the method: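 Reported value is the concentration giving greater than 50 percent cell loss, grouped into bins (≥25 μM; between 1 and 25 μM; ≤1 μM as "+++"). Measured by high-content imaging of DAPI-stained BEAS-2B TFEB-EGFP cells fixed after 18 h compound exposure.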

Compound | toxicity (compound concentration needed to induce greater than 50 percent of cell loss)
FC(F)(F)c1nc2ccc(Nc3nc(-c4ccncc4)nc4ccccc34)cc2o1 [Compound 96] | + (cell loss of greater than 50 percent at a concentration that equals or is greater than 25 μM was represented as)
CC(C)(C)c1cc2cc(Nc3nc(-c4ccncc4)cc4ncccc34)ccc2[nH]1 [Compound 243] | + (cell loss of greater than 50 percent at a concentration that equals or is greater than 25 μM was represented as)
COc1ccc(-n2c(=O)c3ccc(C(=O)NCCc4ccccc4)cc3n(CC(=O)Nc3ccc(C)cc3)c2=O)cc1 [Compound 222] | ++ (cell loss of greater than 50 percent at a concentration less than 25 μM and greater than 1 μM was represented as)
CCc1nc2ccc(Nc3nc(-c4ccncc4)nc4ccccc34)cc2o1 [Compound 360] | + (cell loss of greater than 50 percent at a concentration that equals or is greater than 25 μM was represented as)
c1cc(Nc2nc(-c3ccncc3)nc3ccccc23)c2[nH]ncc2c1 [Compound 100] | + (cell loss of greater than 50 percent at a concentration that equals or is greater than 25 μM was represented as)
FC(F)(F)c1cccc(Nc2nc(-c3ccncc3)nc3ccccc23)c1 [Compound 189] | + (cell loss of greater than 50 percent at a concentration that equals or is greater than 25 μM was represented as)
c1ccc2c(Nc3ccc4oncc4c3)nc(-c3cncs3)nc2c1 [Compound 394] | + (cell loss of greater than 50 percent at a concentration that equals or is greater than 25 μM was represented as)
Cc1cc(Br)cc(Nc2nc(-c3ccncc3)nc3ccccc23)c1 [Compound 55] | + (cell loss of greater than 50 percent at a concentration that equals or is greater than 25 μM was represented as)
C1=C(c2nc(Nc3ccc4[nH]ncc4c3)c3ccccc3n2)CCNC1 [Compound 75] | + (cell loss of greater than 50 percent at a concentration that equals or is greater than 25 μM was represented as)
Clc1cccc(Nc2nc(-c3ccncc3)nc3ccccc23)c1 [Compound 187] | + (cell loss of greater than 50 percent at a concentration that equals or is greater than 25 μM was represented as)
O=C(NCCc1ccccc1)c1ccc2c(=O)n(-c3ccccc3)c(=O)[nH]c2c1 [Compound 238] | + (cell loss of greater than 50 percent at a concentration that equals or is greater than 25 μM was represented as)
c1ccc2c(Nc3ccc4scnc4c3)nc(-c3ccncc3)nc2c1 [Compound 27] | + (cell loss of greater than 50 percent at a concentration that equals or is greater than 25 μM was represented as)
Cc1nc2ccc(Nc3nc(-c4ccncc4)nc4ccccc34)cc2o1 [Compound 34] | + (cell loss of greater than 50 percent at a concentration that equals or is greater than 25 μM was represented as)
Cc1ccc(-c2nc(Nc3ccc(C)c(F)c3)c3ccccc3n2)cc1 [Compound 202] | + (cell loss of greater than 50 percent at a concentration that equals or is greater than 25 μM was represented as)
Fc1cc(Nc2nc(N3CCOCC3)nc3ncccc23)cc2cc[nH]c12 [Compound 384] | + (cell loss of greater than 50 percent at a concentration that equals or is greater than 25 μM was represented as)
CCc1ccc(-n2c(=O)c3ccccc3n(Cc3cccc(F)c3)c2=O)cc1 [Compound 237] | + (cell loss of greater than 50 percent at a concentration that equals or is greater than 25 μM was represented as)
Fc1ccccc1Nc1nc(-c2ccncc2)nc2ccccc12 [Compound 180] | + (cell loss of greater than 50 percent at a concentration that equals or is greater than 25 μM was represented as)
N#Cc1nc2ccc(Nc3nc(-c4ccncc4)nc4ccccc34)cc2s1 [Compound 87] | + (cell loss of greater than 50 percent at a concentration that equals or is greater than 25 μM was represented as)
Cc1cccc2c(Nc3ccc4ncsc4c3)nc(-c3ccncc3)nc12 [Compound 371] | + (cell loss of greater than 50 percent at a concentration that equals or is greater than 25 μM was represented as)
Fc1cc(Nc2nc(-c3ccncc3)cc3ncccc23)cc2cc[nH]c12 [Compound 239] | + (cell loss of greater than 50 percent at a concentration that equals or is greater than 25 μM was represented as)
CCc1nc2ccc(Nc3nc(-c4ccncc4)nc4ncccc34)cc2o1 [Compound 356] | + (cell loss of greater than 50 percent at a concentration that equals or is greater than 25 μM was represented as)
O=c1c2ccccc2n(CCN2CCOCC2)c(=O)n1-c1ccccc1 [Compound 229] | + (cell loss of greater than 50 percent at a concentration that equals or is greater than 25 μM was represented as)
Nc1c(Cl)cc(Nc2nc(-c3ccncc3)nc3ccccc23)cc1Cl [Compound 162] | + (cell loss of greater than 50 percent at a concentration that equals or is greater than 25 μM was represented as)
c1ccc2c(Nc3ccc4ncoc4c3)nc(-c3ccncc3)nc2c1 [Compound 142] | + (cell loss of greater than 50 percent at a concentration that equals or is greater than 25 μM was represented as)
CC(=O)n1ccc2cc(Nc3nc(-c4ccncc4)nc4ccccc34)ccc21 [Compound 70] | + (cell loss of greater than 50 percent at a concentration that equals or is greater than 25 μM was represented as)
Cc1ccc(-c2nc(Nc3cccc(F)c3)c3ccccc3n2)cc1 [Compound 159] | + (cell loss of greater than 50 percent at a concentration that equals or is greater than 25 μM was represented as)
c1ccc2c(Nc3ccc4c(c3)NCCN4)nc(-c3ccncc3)nc2c1 [Compound 42] | + (cell loss of greater than 50 percent at a concentration that equals or is greater than 25 μM was represented as)
OCCNc1nc(-c2ccncc2)nc2ccccc12 [Compound 168] | + (cell loss of greater than 50 percent at a concentration that equals or is greater than 25 μM was represented as)
CC(C)(C)OC(=O)N1CC=C(c2nc(Nc3ccc4[nH]ccc4c3)c3ccccc3n2)CC1 [Compound 88] | + (cell loss of greater than 50 percent at a concentration that equals or is greater than 25 μM was represented as)
Cc1nc2cc(Nc3nc(-c4ccncc4)nc4ccccc34)ccc2s1 [Compound 95] | + (cell loss of greater than 50 percent at a concentration that equals or is greater than 25 μM was represented as)
